# From the supplement of paper PMC3937590
# How the values were obtained:
# Test in all cases: -log10 GI50 (growth inhibition 50%) (-log10(M)); higher = more potent growth inhibition
# HCC2185 = system: HCC2185
# How it was run: (§1)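 A value carrying a < qualifier equals the top dose tested. Each compound was tested in triplicate on breast cancer cell lines for 72 hours at nine doses in 1:5 serial dilution, using a luminescence read-out against a time-zero plate. Nonlinear least squares fitting of a Gompertz curve gave GI50, the molar concentration causing the set level of growth inhibition, which is reported as its negative logarithm. The logarithm is base 10.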
# SKBR3 = system: SKBR3
# How it was run: as §1
# BT20 = system: BT20
# How it was run: as §1
# MCF7 = system: MCF7
# How it was run: as §1
# MDAMB175VII = system: MDAMB175VII
# How it was run: as §1
# MCF10A = system: MCF10A
# How it was run: as §1
# 21MT1 = system: 21MT1
# How it was run: as §1
# 21NT = system: 21NT
# How it was run: as §1
# HCC70 = system: HCC70
# How it was run: as §1
# LY2 = system: LY2
# How it was run: as §1
# BT474 = system: BT474
# How it was run: as §1
# HCC202 = system: HCC202
# How it was run: as §1
# ZR7530 = system: ZR7530
# How it was run: as §1
# MDAMB468 = system: MDAMB468
# How it was run: as §1
# SUM102PT = system: SUM102PT
# How it was run: as §1
# T4 = system: T4
# How it was run: as §1
# MDAMB436 = system: MDAMB436
# How it was run: as §1
# UACC893 = system: UACC893
# How it was run: as §1
# S1 = system: S1
# How it was run: as §1
# HBL100 = system: HBL100
# How it was run: as §1
-log10 GI50 (HCC2185),-log10 GI50 (SKBR3),-log10 GI50 (BT20),-log10 GI50 (MCF7),-log10 GI50 (MDAMB175VII),-log10 GI50 (BT474),-log10 GI50 (HCC202),-log10 GI50 (MDAMB468),-log10 GI50 (MDAMB436),Structure (SMILES),-log10 GI50 (MCF10A),-log10 GI50 (21MT1),-log10 GI50 (21NT),-log10 GI50 (HCC70),-log10 GI50 (LY2),-log10 GI50 (ZR7530),-log10 GI50 (SUM102PT),-log10 GI50 (T4),-log10 GI50 (UACC893),-log10 GI50 (S1),-log10 GI50 (HBL100)
4.98,5.38,5.9,5.71,5.63,5.22,,,,CC(=O)NCC(=O)N1[C@@H]2CC[C@H]1c1ccc(Nc3ncc(C(F)(F)F)c(NC4CCC4)n3)cc12,6.36,5.78,5.54,5.38,5.5,,,,,,
4.99,4.91,4.76,4.49,5.24,4.37,,,,CCC[C@H](N[C@H]1CCc2cc(F)cc(F)c2C1)C(=O)Nc1cn(C(C)(C)CNCC(C)(C)C)cn1,< 4.18,4.38,< 4.18,5.63,4.68,,,,,,
7.12,7.33,5.44,7.39,7.23,6.91,,,,COc1ccc(-c2cc3c(C)nc(N)nc3n([C@H]3CC[C@H](OCCO)CC3)c2=O)cn1,6.69,6.54,5.84,7.31,7.04,,,,,,
5.18,5.14,5.42,5.91,5.23,5.11,,,,C[C@@H](Oc1cc(-c2cnn(C3CCNCC3)c2)cnc1N)c1c(Cl)ccc(F)c1Cl,5.59,5.23,5.18,5.46,5.8,,,,,,
> 9.77,6.93,5.25,6.91,6.56,7.16,,,,Cn1ncc(Cl)c1-c1cc(C(=O)N[C@H](CN)Cc2ccc(F)c(F)c2)oc1Cl,5.03,5.35,5.35,8.68,6.62,,,,,,
< 4.18,7.1,7.3,4.45,7.02,< 4.18,4.84,,,CCN(CC)C(=S)SSC(=S)N(CC)CC [Disulfiram],4.93,< 4.18,4.72,< 4.18,5.01,7.05,,,,,
7.69,7.79,,6.62,7.75,7.84,8.4,7.74,7.15,COC1=C2C[C@@H](C)C[C@H](OC)[C@H](O)[C@@H](C)/C=C(\C)[C@H](OC(N)=O)[C@@H](OC)/C=C\C=C(/C)C(=O)NC(=CC1=O)C2=O [Geldanamycin],8.23,,,7.09,7.24,8.15,8.48,8.22,8.14,8.82,7.6
< 4.18,6.49,6.19,6.22,6.6,6.5,6.68,,,COC(=O)Nc1nc2cc(C(=O)c3ccccc3)ccc2[nH]1 [Mebendazole],5.5,4.74,6.08,6.86,6.32,6.35,,,,,
< 4.48,5.09,5.16,4.8,5.15,4.9,5.34,,,Cc1c(O)cccc1C(=O)N[C@@H](CSc1ccccc1)[C@H](O)CN1C[C@H]2CCCC[C@H]2C[C@H]1C(=O)NC(C)(C)C [Nelfinavir],4.9,4.87,4.57,4.75,5.05,5.74,,,,,
